# Columns and labels:
# Format in all cases: ADME
# [1] = The drug is tested on Alloscardovia omnicolens strain: DSM21503 for biotransformation under anaerobic condition. The drug concentrations were measured over 6 timepoints collected between 0 and 12 hours of incubation by liquid-chromatography-coupled mass spectrometry (LC–MS); design: dose 5 uM, timepoint 0, 1.5, 3, 6, 9, 12 hours; conditions: 5 µM
# [2] = The drug is tested on Bifidobacterium longum strain: DSM20088 for biotransformation under anaerobic condition. The drug concentrations were measured over 6 timepoints collected between 0 and 12 hours of incubation by liquid-chromatography-coupled mass spectrometry (LC–MS); design: dose 5 uM, timepoint 0, 1.5, 3, 6, 9, 12 hours; conditions: 5 µM
# [3] = The drug is tested on Bacteroides fragilis strain: DSM2151 for biotransformation under anaerobic condition. The drug concentrations were measured over 6 timepoints collected between 0 and 12 hours of incubation by liquid-chromatography-coupled mass spectrometry (LC–MS); design: dose 5 uM, timepoint 0, 1.5, 3, 6, 9, 12 hours; conditions: 5 µM
# [4] = The drug is tested on Bacteroides ovatus strain: ATCC 8483 for biotransformation under anaerobic condition. The drug concentrations were measured over 6 timepoints collected between 0 and 12 hours of incubation by liquid-chromatography-coupled mass spectrometry (LC–MS); design: dose 5 uM, timepoint 0, 1.5, 3, 6, 9, 12 hours; conditions: 5 µM
# [5] = The drug is tested on Bacteroides uniformis strain: DSM6597 for biotransformation under anaerobic condition. The drug concentrations were measured over 6 timepoints collected between 0 and 12 hours of incubation by liquid-chromatography-coupled mass spectrometry (LC–MS); design: dose 5 uM, timepoint 0, 1.5, 3, 6, 9, 12 hours; conditions: 5 µM
# [6] = The drug is tested on Bacteroides vulgatus strain: DSM1447 for biotransformation under anaerobic condition. The drug concentrations were measured over 6 timepoints collected between 0 and 12 hours of incubation by liquid-chromatography-coupled mass spectrometry (LC–MS); design: dose 5 uM, timepoint 0, 1.5, 3, 6, 9, 12 hours; conditions: phocaeicola vulgatus, 5 µM
# [7] = The drug is tested on Odoribacter splanchnicus strain: DSM20712 for biotransformation under anaerobic condition. The drug concentrations were measured over 6 timepoints collected between 0 and 12 hours of incubation by liquid-chromatography-coupled mass spectrometry (LC–MS); design: dose 5 uM, timepoint 0, 1.5, 3, 6, 9, 12 hours; conditions: 5 µM
# [8] = The drug is tested on Coprococcus comes strain: ATCC27758 for biotransformation under anaerobic condition. The drug concentrations were measured over 6 timepoints collected between 0 and 12 hours of incubation by liquid-chromatography-coupled mass spectrometry (LC–MS); design: dose 5 uM, timepoint 0, 1.5, 3, 6, 9, 12 hours; conditions: 5 µM
# [9] = The drug is tested on Eubacterium eligens strain: DSM3376 for biotransformation under anaerobic condition. The drug concentrations were measured over 6 timepoints collected between 0 and 12 hours of incubation by liquid-chromatography-coupled mass spectrometry (LC–MS); design: dose 5 uM, timepoint 0, 1.5, 3, 6, 9, 12 hours; conditions: lachnospira eligens, 5 µM
# [10] = The drug is tested on Eubacterium hallii strain: DSM3353 for biotransformation under anaerobic condition. The drug concentrations were measured over 6 timepoints collected between 0 and 12 hours of incubation by liquid-chromatography-coupled mass spectrometry (LC–MS); design: dose 5 uM, timepoint 0, 1.5, 3, 6, 9, 12 hours; conditions: anaerobutyricum hallii, 5 µM
# [11] = The drug is tested on Eubacterium rectale strain: DSM17629 for biotransformation under anaerobic condition. The drug concentrations were measured over 6 timepoints collected between 0 and 12 hours of incubation by liquid-chromatography-coupled mass spectrometry (LC–MS); design: dose 5 uM, timepoint 0, 1.5, 3, 6, 9, 12 hours; conditions: agathobacter rectalis, 5 µM
# [12] = The drug is tested on Lactobacillus ruminis strain: ATCC25644 for biotransformation under anaerobic condition. The drug concentrations were measured over 6 timepoints collected between 0 and 12 hours of incubation by liquid-chromatography-coupled mass spectrometry (LC–MS); design: dose 5 uM, timepoint 0, 1.5, 3, 6, 9, 12 hours; conditions: ligilactobacillus ruminis, 5 µM
# [13] = The drug is tested on Enterococcus faecalis strain: ATCC29212 for biotransformation under anaerobic condition. The drug concentrations were measured over 6 timepoints collected between 0 and 12 hours of incubation by liquid-chromatography-coupled mass spectrometry (LC–MS); design: dose 5 uM, timepoint 0, 1.5, 3, 6, 9, 12 hours; conditions: 5 µM
# [14] = The drug is tested on Alloscardovia omnicolens strain: DSM21503 for biotransformation under microaerobic condition. The drug concentrations were measured over 6 timepoints collected between 0 and 12 hours of incubation by liquid-chromatography-coupled mass spectrometry (LC–MS); design: dose 5 uM, timepoint 0, 1.5, 3, 6, 9, 12 hours; conditions: 5 µM
# [15] = The drug is tested on Lactobacillus ruminis strain: ATCC25644 for biotransformation under microaerobic condition. The drug concentrations were measured over 6 timepoints collected between 0 and 12 hours of incubation by liquid-chromatography-coupled mass spectrometry (LC–MS); design: dose 5 uM, timepoint 0, 1.5, 3, 6, 9, 12 hours; conditions: ligilactobacillus ruminis, 5 µM
# [16] = The drug is tested on Enterococcus faecalis strain: ATCC29212 for biotransformation under microaerobic condition. The drug concentrations were measured over 6 timepoints collected between 0 and 12 hours of incubation by liquid-chromatography-coupled mass spectrometry (LC–MS); design: dose 5 uM, timepoint 0, 1.5, 3, 6, 9, 12 hours; conditions: 5 µM
# [17] = The drug is tested on the gut metagenome community of A-08 with ENA study accession number: PRJEB31790 for biotransformation under anaerobic condition. The drug concentrations were measured over 7 timepoints collected between 0 and 12 hours of incubation by liquid-chromatography-coupled mass spectrometry (LC–MS); design: dose 5 uM, timepoint 0, 0.75, 1.5, 3, 6, 9, 12 hours; conditions: 5 µM
# [18] = The drug is tested on the gut metagenome community of P-02 with ENA study accession number: PRJEB31790 for biotransformation under anaerobic condition. The drug concentrations were measured over 7 timepoints collected between 0 and 12 hours of incubation by liquid-chromatography-coupled mass spectrometry (LC–MS); design: dose 5 uM, timepoint 0, 0.75, 1.5, 3, 6, 9, 12 hours; conditions: 5 µM
# [19] = The drug is tested on the gut metagenome community of P-03 with ENA study accession number: PRJEB31790 for biotransformation under anaerobic condition. The drug concentrations were measured over 7 timepoints collected between 0 and 12 hours of incubation by liquid-chromatography-coupled mass spectrometry (LC–MS); design: dose 5 uM, timepoint 0, 0.75, 1.5, 3, 6, 9, 12 hours; conditions: 5 µM
# [20] = The drug is tested on the gut metagenome community of T-05 with ENA study accession number: PRJEB31790 for biotransformation under anaerobic condition. The drug concentrations were measured over 7 timepoints collected between 0 and 12 hours of incubation by liquid-chromatography-coupled mass spectrometry (LC–MS); design: dose 5 uM, timepoint 0, 0.75, 1.5, 3, 6, 9, 12 hours; conditions: 5 µM
# [21] = The drug is tested on the gut metagenome community of A-03 with ENA study accession number: PRJEB31790 for biotransformation under microaerobic condition. The drug concentrations were measured over 7 timepoints collected between 0 and 12 hours of incubation by liquid-chromatography-coupled mass spectrometry (LC–MS); design: dose 5 uM, timepoint 0, 0.75, 1.5, 3, 6, 9, 12 hours; conditions: 5 µM
# [22] = The drug is tested on the gut metagenome community of A-06 with ENA study accession number: PRJEB31790 for biotransformation under microaerobic condition. The drug concentrations were measured over 7 timepoints collected between 0 and 12 hours of incubation by liquid-chromatography-coupled mass spectrometry (LC–MS); design: dose 5 uM, timepoint 0, 0.75, 1.5, 3, 6, 9, 12 hours; conditions: 5 µM
# [23] = The drug is tested on the gut metagenome community of A-08 with ENA study accession number: PRJEB31790 for biotransformation under microaerobic condition. The drug concentrations were measured over 7 timepoints collected between 0 and 12 hours of incubation by liquid-chromatography-coupled mass spectrometry (LC–MS); design: dose 5 uM, timepoint 0, 0.75, 1.5, 3, 6, 9, 12 hours; conditions: 5 µM
# [24] = The drug is tested on the gut metagenome community of T-05 with ENA study accession number: PRJEB31790 for biotransformation under microaerobic condition. The drug concentrations were measured over 7 timepoints collected between 0 and 12 hours of incubation by liquid-chromatography-coupled mass spectrometry (LC–MS); design: dose 5 uM, timepoint 0, 0.75, 1.5, 3, 6, 9, 12 hours; conditions: 5 µM
SMILES,Bacterial Biotransformation [1],Bacterial Biotransformation [2],Bacterial Biotransformation [3],Bacterial Biotransformation [4],Bacterial Biotransformation [5],Bacterial Biotransformation [6],Bacterial Biotransformation [7],Bacterial Biotransformation [8],Bacterial Biotransformation [9],Bacterial Biotransformation [10],Bacterial Biotransformation [11],Bacterial Biotransformation [12],Bacterial Biotransformation [13],Bacterial Biotransformation [14],Bacterial Biotransformation [15],Bacterial Biotransformation [16],Bacterial Biotransformation [17],Bacterial Biotransformation [18],Bacterial Biotransformation [19],Bacterial Biotransformation [20],further results
Cn1cnc([N+](=O)[O-])c1Sc1ncnc2nc[nH]c12 [AZATHIOPRINE],Compound metabolized,Compound metabolized,Compound metabolized,Compound metabolized,Compound metabolized,Compound metabolized,Compound NOT metabolized,Compound metabolized,Compound metabolized,Compound metabolized,Compound metabolized,Compound NOT metabolized,Compound metabolized,Compound NOT metabolized,Compound metabolized,Compound metabolized,Compound metabolized,Compound NOT metabolized,Compound NOT metabolized,Compound metabolized,Bacterial Biotransformation [21]: Compound metabolized; Bacterial Biotransformation [22]: Compound metabolized; Bacterial Biotransformation [23]: Compound metabolized; Bacterial Biotransformation [24]: Compound NOT metabolized
C[C@H]1C[C@H]2[C@@H]3CCC4=CC(=O)C=C[C@]4(C)[C@@]3(F)[C@@H](O)C[C@]2(C)[C@@]1(O)C(=O)CO [BETAMETHASONE],Compound NOT metabolized,Compound NOT metabolized,Compound NOT metabolized,Compound NOT metabolized,Compound NOT metabolized,Compound NOT metabolized,Compound NOT metabolized,Compound NOT metabolized,Compound NOT metabolized,Compound NOT metabolized,Compound NOT metabolized,Compound NOT metabolized,Compound NOT metabolized,Compound NOT metabolized,Compound NOT metabolized,Compound NOT metabolized,Compound metabolized,Compound metabolized,Compound metabolized,Compound NOT metabolized,Bacterial Biotransformation [21]: Compound NOT metabolized; Bacterial Biotransformation [22]: Compound NOT metabolized; Bacterial Biotransformation [23]: Compound metabolized; Bacterial Biotransformation [24]: Compound NOT metabolized
CCCC1O[C@@H]2C[C@H]3[C@@H]4CCC5=CC(=O)C=C[C@]5(C)[C@H]4[C@@H](O)C[C@]3(C)[C@]2(C(=O)CO)O1 (some centres not stated) [BUDESONIDE],Compound NOT metabolized,Compound NOT metabolized,Compound NOT metabolized,Compound NOT metabolized,Compound NOT metabolized,Compound NOT metabolized,Compound NOT metabolized,Compound NOT metabolized,Compound NOT metabolized,Compound NOT metabolized,Compound NOT metabolized,Compound NOT metabolized,Compound NOT metabolized,Compound NOT metabolized,Compound NOT metabolized,Compound NOT metabolized,Compound metabolized,Compound metabolized,Compound metabolized,Compound NOT metabolized,Bacterial Biotransformation [21]: Compound metabolized; Bacterial Biotransformation [22]: Compound metabolized; Bacterial Biotransformation [23]: Compound metabolized; Bacterial Biotransformation [24]: Compound NOT metabolized
